# Test results reported in PubChem BioAssay (NCI).
#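 The compound was tested at five concentrations on cells cultured in 96-well plates, with a 48-hour exposure period. GI50 marks 50% less growth. At the TGI there is no net growth.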
# Assays:
# Assay in all cases: growth of human tumour cells (NCI), 48 h
# [1] = tested on: TK-10 renal
# [2] = tested on: RXF 393 renal
# [3] = tested on: NCI/ADR-RES ovarian
# [4] = tested on: UO-31 renal
# [5] = tested on: HOP-62 NSCLC
# [6] = tested on: NCI-H226 lung
# [7] = tested on: CAKI-1 renal
# [8] = tested on: CCRF-CEM leukemia
# [9] = tested on: HCC-2998 colon
# [10] = tested on: SNB-19 CNS
# [11] = tested on: MDA-MB-435
# [12] = tested on: T-47D breast
# [13] = tested on: SF-539 CNS
# [14] = tested on: MDA-N
# [15] = tested on: SN12C renal
# [16] = tested on: M14 melanoma
# [17] = tested on: IGROV1 ovarian
# [18] = tested on: A498 renal
# [19] = tested on: A549 NSCLC
# [20] = tested on: NCI-H460 lung
# [21] = tested on: MDA-MB-231 breast
# [22] = tested on: HCT-116 colon
# [23] = tested on: SK-MEL-28 melanoma
# [24] = tested on: SNB-75 CNS
# [25] = tested on: OVCAR-4 ovarian
# [26] = tested on: MOLT-4 leukemia
# [27] = tested on: HOP-92 NSCLC
# [28] = tested on: SF-295 CNS
# [29] = tested on: HS 578T breast
# [30] = tested on: HCT-15 colon
# [31] = tested on: SK-MEL-2 melanoma
# [32] = tested on: BT-549 breast
# [33] = tested on: OVCAR-8 ovarian
# [34] = tested on: MCF7 breast
# [35] = tested on: NCI-H23 lung
# [36] = tested on: OVCAR-5 ovarian
# [37] = tested on: SF-268 CNS
# [38] = tested on: KM12 colon
# [39] = tested on: U251 CNS
# [40] = tested on: COLO 205 colon
# [41] = tested on: UACC-257 melanoma
# [42] = tested on: ACHN renal
# [43] = tested on: HL-60(TB) leukemia
# [44] = tested on: OVCAR-3 ovarian
# [45] = tested on: HT29 colon
# [46] = tested on: SK-OV-3 ovarian
# [47] = tested on: EKVX NSCLC
# [48] = tested on: K-562 leukemia
# [49] = tested on: NCI-H522 lung
# [50] = tested on: PC-3 prostate
# [51] = tested on: SR leukemia
# [52] = tested on: SW-620 colon
# [53] = tested on: SK-MEL-5 melanoma
# [54] = tested on: DU-145 prostate
# [55] = tested on: LOX IMVI melanoma
structure (smiles),measurement,setting,value
CN(CCCNc1ccc2ncn3c4ccccc4c(=O)c1c23)CCCN1C(=O)c2cccc3cc([N+](=O)[O-])cc(c23)C1=O,TGI,[1],156 nM
same,TGI,[2],2140 nM
same,TGI,[3],1690 nM
same,TGI,[4],2260 nM
same,TGI,[5],2150 nM
same,TGI,[6],1550 nM
same,TGI,[7],2000 nM
same,TGI,[8],973 nM
same,TGI,[9],91.6 nM
same,TGI,[10],2280 nM
same,TGI,[11],2130 nM
same,TGI,[12],3420 nM
same,TGI,[13],149 nM
same,TGI,[14],2010 nM
same,TGI,[15],1780 nM
same,TGI,[16],1690 nM
same,TGI,[17],1480 nM
same,TGI,[18],4530 nM
same,TGI,[19],126 nM
same,TGI,[20],22.4 nM
same,TGI,[21],1260 nM
same,TGI,[22],20 nM
same,TGI,[23],2860 nM
same,TGI,[24],1810 nM
same,TGI,[25],2750 nM
same,TGI,[26],193 nM
same,TGI,[27],6390 nM
same,TGI,[28],1420 nM
same,TGI,[29],2420 nM
same,TGI,[30],326 nM
same,TGI,[31],6880 nM
same,TGI,[32],2010 nM
same,TGI,[33],1860 nM
same,TGI,[34],114 nM
same,TGI,[35],1500 nM
same,TGI,[36],2350 nM
same,TGI,[37],2280 nM
same,TGI,[38],1360 nM
same,TGI,[39],133 nM
same,TGI,[40],1060 nM
same,TGI,[41],2100 nM
same,TGI,[42],1210 nM
same,GI50,[43],191 nM
same,TGI,[44],2290 nM
same,TGI,[45],15.5 nM
same,TGI,[46],2690 nM
same,TGI,[47],2160 nM
same,TGI,[48],398 nM
same,TGI,[49],1480 nM
C=CCNc1ccc(C)cc1,TGI,[50],> 100000 nM
same,TGI,[1],> 100000 nM
same,TGI,[51],> 100000 nM
same,TGI,[2],> 100000 nM
same,TGI,[52],> 100000 nM
same,TGI,[3],> 100000 nM
same,TGI,[4],> 100000 nM
same,TGI,[6],> 100000 nM
same,TGI,[8],> 100000 nM
same,TGI,[9],> 100000 nM
same,TGI,[10],> 100000 nM
same,TGI,[11],> 100000 nM
same,TGI,[12],> 100000 nM
same,TGI,[14],> 100000 nM
same,TGI,[15],> 100000 nM
same,TGI,[16],> 100000 nM
same,TGI,[18],30700 nM
same,TGI,[19],> 100000 nM
same,TGI,[20],> 100000 nM
same,TGI,[21],> 100000 nM
same,TGI,[22],> 100000 nM
same,TGI,[23],> 100000 nM
same,TGI,[24],> 100000 nM
same,TGI,[25],> 100000 nM
same,TGI,[26],> 100000 nM
same,TGI,[27],> 100000 nM
same,TGI,[28],> 100000 nM
same,TGI,[29],> 100000 nM
same,TGI,[30],> 100000 nM
same,TGI,[33],> 100000 nM
same,TGI,[34],> 100000 nM
same,TGI,[35],> 100000 nM
same,TGI,[37],> 100000 nM
same,TGI,[38],> 100000 nM
same,TGI,[39],> 100000 nM
same,TGI,[40],> 100000 nM
same,TGI,[41],> 100000 nM
same,TGI,[53],> 100000 nM
same,TGI,[42],> 100000 nM
same,TGI,[54],> 100000 nM
same,TGI,[44],> 100000 nM
same,TGI,[45],> 100000 nM
same,TGI,[55],> 100000 nM
same,TGI,[48],> 100000 nM
same,TGI,[49],> 100000 nM
